US10053463B2 (Janssen Pharmaceutica NV, priority 2013, dated 2018)

The compounds below were run against P2X7 (Homo sapiens (Human), UniProt Q99572) (assay: P2X7 antagonism in human peripheral blood mononuclear cells (PBMCs), IL-1β release). Details: P2X7; Table 3 (additional runs); 10 μM compound; read-out: PBMC 10 μM (% control).
Type: cell-based
Procedure: P2X7 Antagonism in Human Peripheral Blood Mononuclear Cells (PBMCs) and Human Whole Blood.
Human blood was collected using a blood donor program. PBMCs were isolated from blood using a Ficoll density gradient technique. Briefly, blood was laid on Ficoll solution and centrifuged at RT for 20 minutes at 2000 rpm. The buffy layer (between red blood cells and plasma) was carefully collected by aspiration, washed with PBS and centrifuged again at 1500 rpm for 15 minutes. The resulting cell pellet was washed and plated on 96 well-plates for experiments. For the Human Whole Blood experiments, 150 μl of human blood was platted on 96 well-plates. Lipopolysaccharide (LPS) (30 ng/ml) was added to each well and incubated for 1 hour. Test compounds were then added and incubated for 30 minutes. The P2X7 agonist, 2′(3′)-O-(4-benzoylbenzoyl) adenosine 5′-triphosphate (Bz-ATP) was then added at a final concentration of 0.5 mM (PBMC) or 1 mM (blood). Cells were incubated for an additional 1.5 hours. At that point, supernatant was collected and stored for IL-1β assay using manufacturer's protocol for enzyme-linked immunosorbent assay (ELISA). Data was expressed as percent control, where control is defined as the difference in IL-1β release in LPS+Bz-ATP samples and LPS only samples. Data was plotted as response (% control) versus concentration to generate IC50 values. […] Data are analyzed and graphed on Graphpad Prism 5. For analysis, each concentration point is averaged from triplicate values and the averaged values are plotted on Graphpad Prism.

Chain of P2X7 (Q99572 whole entry): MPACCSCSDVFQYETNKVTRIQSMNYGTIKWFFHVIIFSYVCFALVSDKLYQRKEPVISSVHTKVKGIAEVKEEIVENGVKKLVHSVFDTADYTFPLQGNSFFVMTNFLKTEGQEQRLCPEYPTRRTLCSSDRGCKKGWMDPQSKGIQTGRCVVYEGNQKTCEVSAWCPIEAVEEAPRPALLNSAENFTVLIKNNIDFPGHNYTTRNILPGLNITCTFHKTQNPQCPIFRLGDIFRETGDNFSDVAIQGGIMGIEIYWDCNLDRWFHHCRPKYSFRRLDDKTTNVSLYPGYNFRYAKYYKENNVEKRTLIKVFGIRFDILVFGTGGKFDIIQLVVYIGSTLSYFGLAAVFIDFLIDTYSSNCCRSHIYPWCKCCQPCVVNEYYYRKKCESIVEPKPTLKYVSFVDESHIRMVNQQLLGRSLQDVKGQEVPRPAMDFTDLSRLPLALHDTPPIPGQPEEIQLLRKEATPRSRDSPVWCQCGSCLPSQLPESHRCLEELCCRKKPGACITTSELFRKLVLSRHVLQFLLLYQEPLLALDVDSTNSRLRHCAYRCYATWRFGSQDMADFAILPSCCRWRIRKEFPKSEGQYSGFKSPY

SMILES	remaining activity at 10 µM [%]
CC(c1cccc(C(F)(F)F)c1Cl)N1CCn2c(nnc2-c2cnccn2)C1=O (racemic) [Example 4, (±)7-{1-[2-Chloro-3-(trifluoromethyl)phenyl]ethyl}-3-pyrazin-2-yl-6,7-dihydro[1,2,4]triazolo[4,3-a]pyrazin-8(5H)-one]	46
CC1Cn2c(nnc2-c2cnccn2)C(=O)N1Cc1cccc(Cl)c1Cl (racemic) [Example 11, (±)-7-(2,3-Dichlorobenzyl)-6-methyl-3-pyrazin-2-yl-6,7-dihydro[1,2,4]triazolo[4,3-a]pyrazin-8(5H)-one]	-0.4
O=C1c2nnc(-c3cnccn3)n2CC(C2CC2)N1Cc1cccc(C(F)(F)F)c1Cl (racemic) [Example 61, (±)-7-[2-Chloro-3-(trifluoromethyl)benzyl]-6-cyclopropyl-3-pyrazin-2-yl-6,7-dihydro[1,2,4]triazolo[4,3-a]pyrazin-8(5H)-one]	-1
O=C1c2nnc(-c3ncccn3)n2CC(C2CC2)N1Cc1cccc(C(F)(F)F)c1Cl (racemic) [Example 64, (±)-7-[2-Chloro-3-(trifluoromethyl)benzyl]-6-cyclopropyl-3-pyrimidin-2-yl-6,7-dihydro[1,2,4]triazolo[4,3-a]pyrazin-8(5H)-one]	-0.4
O=C1c2nnc(-c3cccnc3)n2CC(C2CC2)N1Cc1cccc(C(F)(F)F)c1Cl (racemic) [Example 67, (±)-7-[2-Chloro-3-(trifluoromethyl)benzyl]-6-cyclopropyl-3-pyridin-3-yl-6,7-dihydro[1,2,4]triazolo[4,3-a]pyrazin-8(5H)-one]	6.9
O=C1c2nnc(-c3cc[nH]n3)n2CC(C2CC2)N1Cc1cccc(C(F)(F)F)c1Cl (racemic) [Example 68, (±)-7-[2-Chloro-3-(trifluoromethyl)benzyl]-6-cyclopropyl-3-(1H-pyrazol-3-yl)-6,7-dihydro[1,2,4]triazolo[4,3-a]pyrazin-8(5H)-one]	1.6
O=C1c2nnc(-c3cnccn3)n2CCN1Cc1c(Cl)cccc1Cl [Example 5, 7-(2,6-Dichlorobenzyl)-3-pyrazin-2-yl-6,7-dihydro[1,2,4]triazolo[4,3-a]pyrazin-8(5H)-one]	8.8
O=C1c2nnc(-c3cnccn3)n2CCN1Cc1cccc(F)c1F [Example 6, 7-(2,3-Difluorobenzyl)-3-pyrazin-2-yl-6,7-dihydro[1,2,4]triazolo[4,3-a]pyrazin-8(5H)-one]	23.7
O=C1c2nnc(-c3ccccn3)n2CCN1Cc1cccc(Cl)c1Cl [Example 8, 7-(2,3-Dichlorobenzyl)-3-pyridin-2-yl-6,7-dihydro[1,2,4]triazolo[4,3-a]pyrazin-8(5H)-one]	-10.6
Cc1c(CN2CCn3c(nnc3-c3ccccn3)C2=O)cccc1C(F)(F)F [Example 10, 7-[2-Methyl-3-(trifluoromethyl)benzyl]-3-pyridin-2-yl-6,7-dihydro[1,2,4]triazolo[4,3-a]pyrazin-8(5H)-one]	59.3
C[C@H]1Cn2c(nnc2-c2cnccn2)C(=O)N1Cc1cccc(Cl)c1Cl [Example 13, (6S)-7-(2,3-Dichlorobenzyl)-6-methyl-3-pyrazin-2-yl-6,7-dihydro[1,2,4]triazolo[4,3-a]pyrazin-8(5H)-one]	8.2
C[C@@H]1Cn2c(nnc2-c2cnccn2)C(=O)N1Cc1cccc(C(F)(F)F)c1Cl [Example 15, (6R)-7-[2-Chloro-3-(trifluoromethyl)benzyl]-6-methyl-3-pyrazin-2-yl-6,7-dihydro[1,2,4]triazolo[4,3-a]pyrazin-8(5H)-one]	4.1
C[C@H]1Cn2c(nnc2-c2cnccn2)C(=O)N1Cc1cccc(C(F)(F)F)c1Cl [Example 16, (6S)-7-[2-Chloro-3-(trifluoromethyl)benzyl]-6-methyl-3-pyrazin-2-yl-6,7-dihydro[1,2,4]triazolo[4,3-a]pyrazin-8(5H)-one]	8.4
C[C@H]1Cn2c(nnc2-c2ccc(F)cc2)C(=O)N1Cc1cccc(C(F)(F)F)c1Cl [Example 17, (6S)-7-[2-Chloro-3-(trifluoromethyl)benzyl]-3-(4-fluorophenyl)-6-methyl-6,7-dihydro[1,2,4]triazolo[4,3-a]pyrazin-8(5H)-one]	2
C[C@H]1Cn2c(nnc2-c2ccccn2)C(=O)N1Cc1cccc(C(F)(F)F)c1Cl [Example 18, (6S)-7-[2-Chloro-3-(trifluoromethyl)benzyl]-6-methyl-3-pyridin-2-yl-6,7-dihydro[1,2,4]triazolo[4,3-a]pyrazin-8(5H)-one]	-6.2
C[C@H]1Cn2c(nnc2-c2ncco2)C(=O)N1Cc1cccc(C(F)(F)F)c1Cl [Example 20, (6S)-7-[2-Chloro-3-(trifluoromethyl)benzyl]-6-methyl-3-(1,3-oxazol-2-yl)-6,7-dihydro[1,2,4]triazolo[4,3-a]pyrazin-8(5H)-one]	4.7
C[C@H]1Cn2c(nnc2-c2cocn2)C(=O)N1Cc1cccc(C(F)(F)F)c1Cl [Example 21, (6S)-7-[2-Chloro-3-(trifluoromethyl)benzyl]-6-methyl-3-(1,3-oxazol-4-yl)-6,7-dihydro[1,2,4]triazolo[4,3-a]pyrazin-8(5H)-one]	-3.4

Results, then the compound that gave them:

remaining activity at 10 µM [%]	SMILES
2.5	CC1Cn2c(nnc2-c2cnccn2)C(=O)N1Cc1cccc(C(F)(F)F)c1Cl (racemic) [Example 14, (±)-7-[2-Chloro-3-(trifluoromethyl)benzyl]-6-methyl-3-pyrazin-2-yl-6,7-dihydro[1,2,4]triazolo[4,3-a]pyrazin-8(5H)-one]
20.8	O=C1c2nnc(-c3ccc(F)cn3)n2CC(C2CC2)N1Cc1cccc(C(F)(F)F)c1Cl (racemic) [Example 69, (±)-7-[2-Chloro-3-(trifluoromethyl)benzyl]-6-cyclopropyl-3-(5-fluoropyridin-2-yl)-6,7-dihydro[1,2,4]triazolo[4,3-a]pyrazin-8(5H)-one]
9.1	O=C1c2nnc(-c3ncc(F)cn3)n2CC(C2CC2)N1Cc1cccc(C(F)(F)F)c1Cl (racemic) [Example 70, (±)-7-[2-Chloro-3-(trifluoromethyl)benzyl]-6-cyclopropyl-3-(5-fluoropyrimidin-2-yl)-6,7-dihydro[1,2,4]triazolo[4,3-a]pyrazin-8(5H)-one]
-1.3	C[C@H](c1ccccc1)N1C(=O)c2nnc(-c3cnccn3)n2C[C@@H]1C (relative stereo) [Example 94, (6S)-6-Methyl-7[(1R*)-1-phenylethyl]-3-pyrazin-2-yl-6,7-dihydro[1,2,4]triazolo[4,3-a]pyrazin-8(5H)-one]
3.1	C[C@H]1Cn2c(nnc2-c2cnccn2)C(=O)N1[C@@H](C)c1ccccc1 (relative stereo) [Example 95, (6S)-6-Methyl-7-[(1S*)-1-phenylethyl]-3-pyrazin-2-yl-6,7-dihydro[1,2,4]triazolo[4,3-a]pyrazin-8(5H)-one]
25.4	O=C1c2nnc(-c3ccc(F)cc3)n2CCN1Cc1cccc(C(F)(F)F)c1Cl [Example 1, 7-[2-Chloro-3-(trifluoromethyl)benzyl]-3-(4-fluorophenyl)-6,7-dihydro[1,2,4]triazolo[4,3-a]pyrazin-8(5H)-one]
8.8	CS(=O)(=O)c1cc(Cl)ccc1CN1CCn2c(nnc2-c2cnccn2)C1=O [Example 7, 7-[4-Chloro-2-(methylsulfonyl)benzyl]-3-pyrazin-2-yl-6,7-dihydro[1,2,4]triazolo[4,3-a]pyrazin-8(5H)-one]
-3.1	O=C1c2nnc(-c3ccccn3)n2CCN1Cc1cccc(C(F)(F)F)c1Cl [Example 9, 7-[2-Chloro-3-(trifluoromethyl)benzyl]-3-pyridin-2-yl-6,7-dihydro[1,2,4]triazolo[4,3-a]pyrazin-8(5H)-one]
-9.5	Cc1cnc(-c2nnc3n2C[C@H](C)N(Cc2cccc(C(F)(F)F)c2Cl)C3=O)cn1 [Example 19, (6S)-7-[2-Chloro-3-(trifluoromethyl)benzyl]-6-methyl-3-(5-methylpyrazin-2-yl)-6,7-dihydro[1,2,4]triazolo[4,3-a]pyrazin-8(5H)-one]
-3.9	C[C@H]1Cn2c(nnc2-c2cnco2)C(=O)N1Cc1cccc(C(F)(F)F)c1Cl [Example 22, (6S)-7-[2-Chloro-3-(trifluoromethyl)benzyl]-6-methyl-3-(1,3-oxazol-5-yl)-6,7-dihydro[1,2,4]triazolo[4,3-a]pyrazin-8(5H)-one]
-7	C[C@H]1Cn2c(nnc2-c2ccn(C)n2)C(=O)N1Cc1cccc(C(F)(F)F)c1Cl [Example 23, (6S)-7-[2-Chloro-3-(trifluoromethyl)benzyl]-6-methyl-3-(1-methyl-1H-pyrazol-3-yl)-6,7-dihydro[1,2,4]triazolo[4,3-a]pyrazin-8(5H)-one]

Same assay, conditions: Table 2; 10 μM compound; IL-1β release, LPS + 0.5 mM Bz-ATP

SMILES	PBMC 10 μM (% control)
C[C@H]1Cn2c(nnc2-c2cnccn2)C(=O)N1Cc1cccc(Cl)c1Cl [Example 13, (6S)-7-(2,3-Dichlorobenzyl)-6-methyl-3-pyrazin-2-yl-6,7-dihydro[1,2,4]triazolo[4,3-a]pyrazin-8(5H)-one]	15.4
C[C@H]1Cn2c(nnc2-c2cnccn2)C(=O)N1Cc1cccc(C(F)(F)F)c1Cl [Example 16, (6S)-7-[2-Chloro-3-(trifluoromethyl)benzyl]-6-methyl-3-pyrazin-2-yl-6,7-dihydro[1,2,4]triazolo[4,3-a]pyrazin-8(5H)-one]	13.4

Same assay, conditions: Table 3 (additional runs); 1 μM compound

SMILES	PBMC 1 μM (% control)
O=C1c2nnc(-c3cnccn3)n2CCN1Cc1cccc(C(F)(F)F)c1Cl [Example 3, 7-[2-Chloro-3-(trifluoromethyl)benzyl]-3-pyrazin-2-yl-6,7-dihydro[1,2,4]triazolo[4,3-a]pyrazin-8(5H)-one]	−0.6
